In one test the target is T1, FAAH (Mus musculus, UniProt O08914).
T1 construct: Proteomes (mouse brain membrane fraction or cell lysates); from tissue; host or cells: mouse brain membrane fraction (or cell lysates)
T1 sequence (O08914 1-579): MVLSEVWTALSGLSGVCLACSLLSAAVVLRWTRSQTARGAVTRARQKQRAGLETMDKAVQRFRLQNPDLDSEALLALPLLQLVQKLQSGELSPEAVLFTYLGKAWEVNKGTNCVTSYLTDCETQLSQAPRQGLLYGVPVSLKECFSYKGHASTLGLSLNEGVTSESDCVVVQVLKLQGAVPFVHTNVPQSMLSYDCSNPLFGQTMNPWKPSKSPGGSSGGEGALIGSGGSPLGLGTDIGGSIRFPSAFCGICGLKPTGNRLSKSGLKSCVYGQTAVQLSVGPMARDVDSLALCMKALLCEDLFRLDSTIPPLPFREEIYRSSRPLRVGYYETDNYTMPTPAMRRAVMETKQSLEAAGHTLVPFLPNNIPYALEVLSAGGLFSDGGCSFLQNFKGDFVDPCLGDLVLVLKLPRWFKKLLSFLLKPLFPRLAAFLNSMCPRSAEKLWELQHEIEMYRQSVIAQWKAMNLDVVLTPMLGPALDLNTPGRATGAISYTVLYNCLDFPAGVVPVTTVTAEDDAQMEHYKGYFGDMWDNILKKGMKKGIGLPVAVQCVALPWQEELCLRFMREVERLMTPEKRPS
Nature of the test: In vitro competitive activity-based protein profiling (mouse), FAAH gel band. It is filed as biochemical. Conditions: for inhibition at 1 µM: read-out: FAAH % inh. 1 μM; for IC50: mouse. In a few lines: (§1)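 Mouse brain membrane proteome or cell lysate (1.0 mg/mL total protein) was preincubated with varying inhibitor concentrations for 30 min at 37 °C, then labelled for 30 min at 37 °C with FP-Rh or HT-01 (50 μM stock in DMSO). Activity was read as fluorescent band intensity after SDS-PAGE.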

Test [1] has as its target T2, MAGL (Mus musculus, UniProt O35678).
T2 construct: Proteomes (mouse brain membrane fraction or cell lysates); from tissue; host or cells: mouse brain membrane fraction (or cell lysates)
T2 sequence (O35678 1-303): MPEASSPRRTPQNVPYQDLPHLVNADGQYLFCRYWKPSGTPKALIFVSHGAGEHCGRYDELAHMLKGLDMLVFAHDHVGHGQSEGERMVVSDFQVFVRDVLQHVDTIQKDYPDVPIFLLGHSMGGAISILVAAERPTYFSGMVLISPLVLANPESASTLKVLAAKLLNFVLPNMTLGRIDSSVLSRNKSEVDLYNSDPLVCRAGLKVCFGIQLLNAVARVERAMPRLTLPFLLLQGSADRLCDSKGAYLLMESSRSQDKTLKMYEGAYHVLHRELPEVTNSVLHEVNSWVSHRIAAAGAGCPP
Nature of the test: In vitro competitive activity-based protein profiling (mouse), MAGL gel band. It is filed as biochemical. Conditions: for inhibition at 1 µM: read-out: MAGL % inh. 1 μM; for IC50: mouse. Summed up:
as §1

Test [2] concerns the target T3, MAGL (Homo sapiens, UniProt Q99685).
T3 construct: Proteomes (human prefrontal cortex or cell membrane fractions); from tissue; host or cells: human prefrontal cortex (or cell membrane fractions)
T3 sequence (Q99685 1-303): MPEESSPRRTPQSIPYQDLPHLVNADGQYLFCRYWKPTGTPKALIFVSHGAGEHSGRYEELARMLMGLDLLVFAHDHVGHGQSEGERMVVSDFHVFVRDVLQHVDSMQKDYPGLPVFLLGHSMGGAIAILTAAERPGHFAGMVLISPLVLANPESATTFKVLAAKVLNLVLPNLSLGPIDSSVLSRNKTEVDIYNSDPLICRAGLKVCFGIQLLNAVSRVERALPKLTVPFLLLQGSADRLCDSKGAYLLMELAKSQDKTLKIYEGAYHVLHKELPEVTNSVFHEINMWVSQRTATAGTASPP
Nature of the test: In vitro competitive activity-based protein profiling (human), MAGL gel band. Type of test: biochemical. The protocol:
In Vitro Competitive Activity-Based Protein Profiling (Human).
Proteomes (human prefrontal cortex or cell membrane fractions) (50 μL, 1.0-2.0 mg/mL total protein concentration) were preincubated with varying concentrations of inhibitors at 37° C. After 30 min, FP-Rh or JW912 (1.0 μL, 50 μM in DMSO) was added and the mixture was incubated for another 30 min at room temperature. Reactions were quenched with SDS loading buffer (15 μL—4×) and run on SDS-PAGE. Following gel imaging, serine hydrolase activity was determined by measuring fluorescent intensity of gel bands corresponding to MAGL using ImageJ 1.49k software.

In test [3] the target is T2, MAGL. Nature of the test: Mouse brain proteomes from inhibitor treated mice (oral gavage, sacrificed 4 h after administration). It is filed as in vivo. Conditions: read-out: MAGL % inh. 5 mg/kg. In a few lines: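 Wild-type C57Bl/6J mice got compound by oral gavage in polyethylene glycol vehicle. Brain proteomes were prepared 4 h after dosing and analyzed for serine hydrolase activity.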

Molecules are shown by their SMILES.

Usually IC50 stands for the point on the concentration scale where inhibition reaches its midpoint. Low values mean inhibition by little substance, high ones a need for much substance. Take `CS(=O)(=O)Nc1ccn(C(=O)N2CCN(Cc3ccc(C(F)(F)F)cc3-c3ncon3)CC2)n1` [Example 112, N-(1-(4-(2-(1,2,4-oxadiazol-3-yl)-4-(trifluoromethyl)benzyl)piperazine-1-carbonyl)-1H-pyrazol-3-yl)methanesulfonamide]: the inhibition at 1 µM was 0 to 25% at FAAH and at least 75% on MAGL [1]. Moreover, on MAGL [2], the IC50 was at most 0.1 µM.

Regarding `CS(=O)(=O)Nc1ccn(C(=O)N2CCN(Cc3ccc(C(F)(F)F)cc3-c3nnco3)CC2)n1` [Example 113, N-(1-(4-(2-(1,3,4-oxadiazol-2-yl)-4-(trifluoromethyl)benzyl)piperazine-1-carbonyl)-1H-pyrazol-3-yl)methanesulfonamide], the inhibition at 1 µM was 0 to 25% on FAAH and at least 75% at MAGL [1]. On MAGL [2], this compound came in with a 50% inhibitory concentration (IC50) of 0.1 to 1 µM.

Turning to `CS(=O)(=O)Nc1ccn(C(=O)N2CCN(Cc3ccc(C(F)(F)F)cc3N3CCN(C(=O)CO)CC3)CC2)n1` [Example 116, N-(1-(4-(2-(4-(2-hydroxyacetyl)piperazin-1-yl)-4-(trifluoromethyl)benzyl)piperazine-1-carbonyl)-1H-pyrazol-3-yl)methanesulfonamide], the inhibition at 1 µM at FAAH is 0 to 25%; at MAGL [1], at least 75%. Also, the IC50 on MAGL [2] is at most 0.1 µM.

For the compound `CS(=O)(=O)Nc1ccn(C(=O)N2CCN(Cc3ccc(C(F)(F)F)cc3C3CCN(CC(=O)O)CC3)CC2)n1` [Example 118, 2-(4-(2-((4-(3-(methylsulfonamido)-1H-pyrazole-1-carbonyl)piperazin-1-yl)methyl)-5-(trifluoromethyl)phenyl)piperidin-1-yl)acetic Acid], the inhibition at 1 µM at FAAH was 0 to 25%; at MAGL [1], 0 to 25%; at MAGL [2] (at 1 μM, read-out: MAGL human % inh at 1 μM) it was 25%.

`CS(=O)(=O)Nc1ccn(C(=O)N2CCN(Cc3cccc(-c4cccnc4)c3)CC2)n1` [Example 120, N-(1-(4-(3-(pyridin-3-yl)benzyl)piperazine-1-carbonyl)-1H-pyrazol-3-yl) methanesulfonamide]: the IC50 is 1 to 10 µM at FAAH, 0.1 to 1 µM on MAGL [1] and at most 0.1 µM on MAGL [2]. The inhibition at 1 µM at FAAH was 0 to 25%; at MAGL [1], at least 75%.

Consider `CS(=O)(=O)Nc1ccn(C(=O)N2CCN(Cc3ccc(Cl)cc3N3CCCC3)CC2)n1` [Example 127, N-(1-(4-(4-chloro-2-(pyrrolidin-1-yl)benzyl)piperazine-1-carbonyl)-1H-pyrazol-3-yl) methanesulfonamide], for which, at FAAH, the IC50 was 1 to 10 µM and the inhibition at 1 µM is 0 to 25%. At MAGL [1], the half-maximal inhibitory concentration (IC50) was at most 0.1 µM and the inhibition at 1 µM is at least 75%. Also, at MAGL [3], the inhibition at 5 mg/kg is at least 75%.

For the compound `CS(=O)(=O)Nc1ccn(C(=O)N2CCN(Cc3ccc(C(F)(F)F)cc3N3CC4CCC(C3)O4)CC2)n1` [Example 130, N-(1-(4-(2-(8-oxa-3-azabicyclo[3.2.1]octan-3-yl)-4-(trifluoromethyl)benzyl)piperazine-1-carbonyl)-1H-pyrazol-3-yl) methanesulfonamide], on FAAH, the half-inhibitory concentration (IC50) lay in the range of 1 to 10 µM and the inhibition at 1 µM is 0 to 25%. Moreover, on MAGL [1], the half-inhibitory concentration (IC50) is at most 0.1 µM and the inhibition at 1 µM was at least 75%. For the same compound, at MAGL [3], the inhibition at 5 mg/kg fell in the range of 50 to 75%.

Regarding `Cc1c(CN2CCCC23CCN(C(=O)n2ccc(NS(C)(=O)=O)n2)CC3)cccc1N1CCCCC1` [Example 142, N-(1-(1-(2-methyl-3-(piperidin-1-yl)benzyl)-1,8-diazaspiro[4.5]decane-8-carbonyl)-1H-pyrazol-3-yl) methanesulfonamide], the IC50 is 1 to 10 µM at FAAH and at most 0.1 µM on MAGL [1]. Besides, the inhibition at 1 µM is 0 to 25% at FAAH and at least 75% on MAGL [1]. For the same compound, the inhibition at 5 mg/kg on MAGL [3] lay within 0 to 25%.

With `Cc1ccc(CN2CCN(C(=O)n3ccc(NS(C)(=O)=O)n3)CC2)c(N2CC3CCC(C2)O3)c1` [Example 146, N-(1-(4-(2-(8-oxa-3-azabicyclo[3.2.1]octan-3-yl)-4-methylbenzyl)piperazine-1-carbonyl)-1H-pyrazol-3-yl) methanesulfonamide], on FAAH, the half-inhibitory concentration (IC50) lay in the range of 1 to 10 µM and the inhibition at 1 µM lay within 0 to 25%. Also, at MAGL [1], the half-maximal inhibitory concentration (IC50) is at most 0.1 µM and the inhibition at 1 µM was at least 75%. Moreover, the inhibition at 5 mg/kg at MAGL [3] was in the range of 25 to 50%.

As for `CS(=O)(=O)Nc1ccn(C(=O)N2CCC3(CCCN3Cc3ccc(C(F)(F)F)c(Cl)c3)CC2)n1` [Example 161, N-(1-(1-(3-chloro-4-(trifluoromethyl)benzyl)-1,8-diazaspiro[4.5]decane-8-carbonyl)-1H-pyrazol-3-yl) methanesulfonamide], the inhibition at 1 µM at FAAH is 0 to 25%; on MAGL [1], at least 75%. Also, the inhibition at 5 mg/kg at MAGL [3] lay within 0 to 25%.

For the compound `CC(=O)Nc1ccn(C(=O)N2CCN(Cc3cccc(C(F)(F)F)c3-c3nnn[nH]3)CC2)n1` [Example 223, N-(1-(4-(2-(1H-tetrazol-5-yl)-3-(trifluoromethyl)benzyl)piperazine-1-carbonyl)-1H-pyrazol-3-yl)acetamide], at FAAH, the IC50 was 1 to 10 µM and the inhibition at 1 µM fell in the range of 0 to 25%. For the same compound, on MAGL [1], the IC50 was in the range of 1 to 10 µM and the inhibition at 1 µM was at least 75%. Also, the inhibition at 5 mg/kg on MAGL [3] fell in the range of 0 to 25%.

With `CC(=O)Nc1ccn(C(=O)N2CCN(Cc3ccc(Cl)cc3N3CCC(C(=O)O)CC3)CC2)n1` [Example 248, 1-(2-((4-(3-acetamido-1H-pyrazole-1-carbonyl)piperazin-1-yl)methyl)-5-chlorophenyl) piperidine-4-carboxylic acid], on FAAH, the 50% inhibitory concentration (IC50) lay in the range of 1 to 10 µM and the inhibition at 1 µM was in the range of 0 to 25%. For the same compound, on MAGL [1], the half-maximal inhibitory concentration (IC50) is at most 0.1 µM and the inhibition at 1 µM was at least 75%. Further, at MAGL [3], the inhibition at 5 mg/kg fell in the range of 0 to 25%.

As for `CC(=O)Nc1ccn(C(=O)N2CCN(Cc3ccc(Cl)cc3-c3nnn[nH]3)CC2)n1` [Example 262, N-(1-(4-(4-chloro-2-(1H-tetrazol-5-yl)benzyl)piperazine-1-carbonyl)-1H-pyrazol-3-yl)acetamide], on FAAH, the IC50 lay in the range of 1 to 10 µM and the inhibition at 1 µM was 0 to 25%. At MAGL [1], the 50% inhibitory concentration (IC50) was at most 0.1 µM and the inhibition at 1 µM was at least 75%. Further, the inhibition at 5 mg/kg on MAGL [3] is 0 to 25%.

As for `[2H]C([2H])([2H])C(=O)Nc1ccn(C(=O)N2CCC3(CCCN3Cc3ccc(Cl)c(C)c3)CC2)n1` [Example 286, N-(1-(1-(4-chloro-3-methylbenzyl)-1,8-diazaspiro[4.5]decane-8-carbonyl)-1H-pyrazol-3-yl)acetamide-2,2,2-d3], the inhibition at 1 µM on FAAH is 0 to 25%; at MAGL [1], at least 75%. The inhibition at 5 mg/kg at MAGL [3] is at least 75%.

As to `CS(=O)(=O)Nc1ccn(C(=O)N2CCN(Cc3cccc(Cl)c3N3CCC4(CCOCC4)C3)CC2)n1` [Example 290, N-(1-(4-(3-chloro-2-(8-oxa-2-azaspiro[4.5]decan-2-yl)benzyl)piperazine-1-carbonyl)-1H-pyrazol-3-yl) methanesulfonamide], on FAAH, the concentration for half-maximal inhibition (IC50) is 1 to 10 µM and the inhibition at 1 µM fell in the range of 0 to 25%. At MAGL [1], the half-inhibitory concentration (IC50) was at most 0.1 µM and the inhibition at 1 µM is at least 75%. For the same compound, the inhibition at 5 mg/kg on MAGL [3] is 50 to 75%.

Source of the values: patent US10519134B2, “Pyrazole compounds and methods of making and using same” (Lundbeck La Jolla Research Center, Inc., priority 2015, dated 2019).
